Test results taken from the supplement of paper PMC10307832.

Tests used:
Test in all cases: relative viability (nuclei count vs DMSO), 5 days (fraction); higher = more cells survive
Seliciclib + Phenformin = compound: CC[C@H](CO)Nc1nc(NCc2ccccc2)c2ncn(C(C)C)c2n1 [Seliciclib] + N=C(N)NC(=N)NCCc1ccccc1 [Phenformin] (partner 250 µM)
Summary of the method: (§1)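 Values are medians from duplicate plates. Each reflects relative viability, defined as the nuclei count of treated wells over that of vehicle wells. Lung cancer cell lines in 1536-well plates were pin-tool dosed one day after seeding with one drug alone or with a fixed anchor-drug dose plus five library-drug doses (not always all listed) in √10 steps, then fixed, stained and imaged at 4× after 5 days.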

Seliciclib + Pictilisib = compound: CC[C@H](CO)Nc1nc(NCc2ccccc2)c2ncn(C(C)C)c2n1 [Seliciclib] + CS(=O)(=O)N1CCN(Cc2cc3nc(-c4cccc5[nH]ncc45)nc(N4CCOCC4)c3s2)CC1 [Pictilisib] (partner 1 µM)
Summary of the method: as §1

Seliciclib + Alpelisib = compound: CC[C@H](CO)Nc1nc(NCc2ccccc2)c2ncn(C(C)C)c2n1 [Seliciclib] + Cc1nc(NC(=O)N2CCC[C@H]2C(N)=O)sc1-c1ccnc(C(C)(C)C(F)(F)F)c1 [Alpelisib] (partner 2 µM)
Summary of the method: as §1

Seliciclib + AZD7762 = compound: CC[C@H](CO)Nc1nc(NCc2ccccc2)c2ncn(C(C)C)c2n1 [Seliciclib] + NC(=O)Nc1cc(-c2cccc(F)c2)sc1C(=O)N[C@H]1CCCNC1 [AZD7762] (partner 0.2 µM)
Summary of the method: as §1

| Cell Line | relative viability (Seliciclib + Phenformin; first compound 0.08 µM) | relative viability (Seliciclib + Phenformin; first compound 0.253 µM) | relative viability (Seliciclib + Phenformin; first compound 0.8 µM) | relative viability (Seliciclib + Phenformin; first compound 2.53 µM) | relative viability (Seliciclib + Phenformin; first compound 8 µM) | relative viability (Seliciclib + Pictilisib; first compound 0.08 µM) | relative viability (Seliciclib + Pictilisib; first compound 0.253 µM) | relative viability (Seliciclib + Pictilisib; first compound 0.8 µM) | relative viability (Seliciclib + Pictilisib; first compound 2.53 µM) | relative viability (Seliciclib + Pictilisib; first compound 8 µM) | relative viability (Seliciclib + Alpelisib; first compound 0.08 µM) | relative viability (Seliciclib + Alpelisib; first compound 0.253 µM) | relative viability (Seliciclib + Alpelisib; first compound 0.8 µM) | relative viability (Seliciclib + Alpelisib; first compound 2.53 µM) | relative viability (Seliciclib + Alpelisib; first compound 8 µM) | relative viability (Seliciclib + AZD7762; first compound 0.08 µM) | relative viability (Seliciclib + AZD7762; first compound 0.253 µM) | relative viability (Seliciclib + AZD7762; first compound 0.8 µM) | relative viability (Seliciclib + AZD7762; first compound 2.53 µM) | relative viability (Seliciclib + AZD7762; first compound 8 µM) |
| --- | --- | --- | --- | --- | --- | --- | --- | --- | --- | --- | --- | --- | --- | --- | --- | --- | --- | --- | --- | --- |
| LK-2 | 0.475 | 0.415 | 0.358 | 0.243 | 0.274 | 0.591 | 0.562 | 0.614 | 0.541 | 0.447 | 1.05 | 0.968 | 0.955 | 1.17 | 0.822 | 0.414 | 0.379 | 0.584 | 0.187 | 0.293 |
| LOU-NH91 | 0.609 | 0.666 | 0.671 | 0.589 | 0.552 | 0.49 | 0.573 | 0.495 | 0.484 | 0.468 | 0.687 | 0.689 | 0.661 | 0.653 | 0.515 | – | 0.715 | 0.794 | 0.702 | 0.569 |
| LU99A | 0.898 | 0.937 | 0.817 | 0.705 | 0.714 | 0.349 | 0.301 | 0.374 | 0.229 | 0.284 | 0.491 | 0.518 | 0.452 | 0.359 | 0.416 | 0.338 | 0.321 | 0.491 | 0.317 | 0.49 |
| LXF-289 | 0.52 | 0.505 | 0.501 | 0.507 | 0.496 | 0.779 | 0.86 | 0.701 | 0.595 | 0.724 | 1.01 | 1.09 | 1.02 | 1.02 | 0.891 | 1.09 | 1.33 | 1.06 | 1.16 | 0.993 |
| NCI-H23 | 0.83 | 0.809 | 0.784 | 0.672 | 0.603 | 0.507 | 0.462 | 0.395 | 0.283 | 0.365 | 0.612 | 0.447 | 0.603 | 0.504 | 0.562 | 0.25 | 0.292 | 0.424 | 0.258 | 0.468 |
| NCI-H322M | 0.861 | 0.967 | 0.693 | 0.673 | 0.536 | 0.523 | 0.583 | 0.494 | 0.449 | 0.379 | 0.87 | 0.876 | 0.692 | 0.822 | 0.73 | 0.594 | 0.646 | 0.637 | 0.692 | 0.907 |
| NCI-H358 | 0.347 | 0.392 | 0.248 | 0.241 | 0.209 | 0.346 | 0.408 | 0.289 | 0.312 | 0.216 | 0.789 | 0.887 | 0.913 | 0.741 | 0.444 | 0.55 | 0.577 | 0.235 | 0.462 | 0.434 |
| NCI-H441 | 0.836 | 0.804 | 0.805 | 0.459 | 0.632 | 0.49 | 0.635 | 0.531 | 0.469 | 0.377 | 0.631 | 0.584 | 0.776 | 0.754 | 0.51 | 1.1 | 1.09 | 0.979 | 1.28 | 0.994 |
| NCI-H460 | 0.55 | 0.526 | 0.515 | 0.567 | 0.469 | 0.367 | 0.376 | 0.275 | 0.248 | 0.252 | 0.426 | 0.485 | 0.381 | 0.538 | 0.385 | 0.567 | 0.752 | 0.71 | 1.06 | 0.773 |
| NCI-H596 | 0.66 | – | 0.83 | 0.784 | 0.595 | 0.376 | 0.36 | 0.403 | 0.421 | 0.415 | 0.522 | 0.428 | 0.498 | 0.506 | 0.468 | 1.12 | – | 1.17 | 1.19 | 0.993 |
| NCI-H647 | 0.515 | – | 0.537 | 0.603 | 0.409 | 0.367 | 0.45 | 0.25 | 0.296 | 0.248 | 0.952 | 1.1 | 0.978 | 1.15 | 0.618 | 0.676 | 0.554 | 0.496 | 0.554 | 0.48 |
| NCI-H650 | 0.48 | 0.467 | 0.532 | 0.257 | 0.46 | 0.887 | 0.869 | 1.04 | – | 0.772 | 1.05 | 1.02 | 1.35 | – | 0.872 | 1.15 | 0.863 | 1.26 | 0.947 | 1.07 |
| NCI-H727 | 0.562 | 0.488 | 0.561 | 0.373 | 0.472 | 0.43 | 0.338 | 0.197 | 0.232 | 0.296 | 0.571 | 0.696 | 0.49 | 0.526 | 0.538 | 0.611 | 0.731 | 0.567 | 0.522 | 0.787 |
| NCI-H838 | 0.59 | 0.559 | 0.561 | 0.461 | 0.329 | 0.469 | 0.468 | 0.432 | 0.408 | 0.294 | 0.971 | 0.853 | 0.884 | 1.14 | 0.94 | 0.922 | 0.966 | 0.877 | 0.939 | 0.861 |
| NCI-H1355 | 0.436 | 0.443 | 0.433 | 0.423 | 0.435 | 0.426 | 0.452 | 0.359 | 0.452 | 0.429 | 0.784 | 0.754 | 0.822 | 0.919 | 0.831 | 0.805 | 0.623 | 0.799 | 0.832 | 0.975 |
| NCI-H1395 | 0.433 | 0.438 | 0.455 | 0.453 | 0.428 | 0.6 | 0.757 | 0.641 | 0.535 | 0.649 | 1.08 | 0.843 | 1.04 | 1.07 | 1.02 | 0.41 | 0.436 | 0.419 | – | 0.533 |
| NCI-H1437 | 0.347 | 0.353 | 0.291 | 0.241 | 0.262 | 0.484 | 0.377 | 0.439 | 0.394 | 0.331 | 0.919 | 0.855 | 1.02 | 1.02 | 0.935 | 1.06 | 1.19 | 1.17 | 0.999 | 1.08 |
| NCI-H1651 | 0.339 | 0.366 | 0.317 | 0.277 | 0.249 | 0.484 | 0.636 | 0.563 | 0.45 | 0.487 | 0.93 | 0.839 | 0.833 | 0.81 | 0.804 | 0.474 | 0.464 | 0.488 | 0.504 | 0.673 |
| NCI-H1666 | 0.59 | 0.589 | 0.556 | 0.549 | 0.516 | 0.33 | 0.526 | 0.478 | 0.353 | 0.439 | 1.04 | 0.985 | 0.846 | 0.923 | 0.516 | 0.862 | 0.959 | 0.936 | 0.793 | 0.818 |
| NCI-H1734 | 0.385 | 0.35 | 0.311 | 0.334 | 0.356 | 0.452 | 0.477 | 0.385 | 0.379 | 0.41 | 0.659 | 0.651 | 0.622 | 0.683 | 0.674 | 0.533 | 0.43 | 0.584 | 0.561 | 0.642 |
| NCI-H1755 | 0.601 | 0.6 | 0.586 | 0.584 | 0.599 | 0.414 | 0.504 | 0.389 | 0.339 | 0.386 | 0.924 | 0.946 | 0.908 | 0.991 | 0.892 | 0.447 | 0.408 | 0.481 | 0.488 | 0.617 |
| NCI-H1792 | 0.421 | 0.308 | 0.306 | – | 0.329 | 0.233 | 0.313 | 0.273 | 0.285 | 0.274 | 0.765 | 0.725 | 0.719 | 0.682 | 0.633 | 0.897 | 0.57 | 0.567 | – | 0.736 |
| NCI-H1793 | 0.378 | 0.307 | 0.378 | 0.32 | 0.227 | 0.282 | 0.339 | 0.317 | 0.32 | 0.294 | 0.641 | 0.68 | 0.508 | 0.708 | 0.742 | 0.51 | 0.45 | 0.547 | 0.792 | 1.09 |
| NCI-H1915 | 0.448 | 0.403 | 0.376 | 0.373 | 0.328 | 0.918 | 1.05 | 0.824 | 0.839 | 0.803 | 1.05 | 1.1 | 1.04 | 1.04 | 0.875 | 0.714 | 0.591 | 0.826 | 0.817 | 0.717 |
| NCI-H1944 | 0.188 | 0.22 | 0.168 | 0.178 | 0.168 | 0.375 | 0.35 | 0.333 | 0.283 | 0.303 | 0.813 | 0.859 | 0.77 | 0.904 | 0.666 | 0.521 | 0.473 | 0.503 | 0.584 | 0.636 |
| NCI-H1975 | 0.386 | 0.335 | 0.392 | 0.312 | 0.236 | 0.296 | 0.298 | 0.352 | 0.214 | 0.271 | 0.653 | 0.526 | 0.602 | 0.621 | 0.445 | 0.684 | 0.628 | 0.741 | 0.613 | 0.758 |
| NCI-H1993 | 0.551 | 0.54 | 0.496 | 0.474 | 0.456 | 0.816 | 0.703 | 0.847 | 0.777 | 0.847 | 0.728 | 0.708 | 0.716 | 0.688 | 0.669 | 0.778 | 0.739 | 0.843 | 0.662 | 0.63 |
